Data: US6762205B1, “Phenyl sulfamate derivatives” (Teikoku Hormone Mfg. Co., Ltd., priority 1999, dated 2004)
Read-outs that look alike come from different tables or passages of the source.

Legend:
steroid sulfatase [1] = target: T1, steroid sulfatase (Homo sapiens, UniProt P08842); conditions: qualitative statement on prior art compounds; cited from earlier work
T1 sequence (P08842 22-583): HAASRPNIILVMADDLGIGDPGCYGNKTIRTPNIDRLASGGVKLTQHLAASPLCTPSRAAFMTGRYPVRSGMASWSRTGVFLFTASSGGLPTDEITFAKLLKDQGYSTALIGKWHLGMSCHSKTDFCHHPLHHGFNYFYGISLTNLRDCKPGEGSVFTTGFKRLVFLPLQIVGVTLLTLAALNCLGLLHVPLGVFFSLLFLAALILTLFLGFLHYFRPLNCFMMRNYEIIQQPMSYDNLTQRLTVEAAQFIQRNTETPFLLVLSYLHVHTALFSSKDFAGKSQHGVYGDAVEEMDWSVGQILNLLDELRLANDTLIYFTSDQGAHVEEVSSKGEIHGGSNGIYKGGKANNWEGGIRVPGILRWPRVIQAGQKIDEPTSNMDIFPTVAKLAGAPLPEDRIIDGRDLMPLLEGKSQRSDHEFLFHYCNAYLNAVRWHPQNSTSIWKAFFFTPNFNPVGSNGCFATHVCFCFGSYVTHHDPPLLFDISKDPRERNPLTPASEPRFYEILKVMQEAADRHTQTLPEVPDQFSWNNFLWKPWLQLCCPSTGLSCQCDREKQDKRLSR

[2] = qualitative statement on prior art compounds; cited from earlier work
steroid sulfatase [3] = target: T2, steroid sulfatase (Rattus norvegicus, UniProt P15589); experiment: In vivo inhibitory effect on steroid sulfatase (rat liver and uterus homogenates after 5 days of dosing); conditions: po, once a day for 5 days, female SD rats, 4 hours after final administration
T2 construct: the liver and the uterus were excised from each rat; from tissue; host or cells: rat liver and uterus homogenate (2,000 x g supernatant) after 5 days of dosing
T2 sequence (P15589 20-577): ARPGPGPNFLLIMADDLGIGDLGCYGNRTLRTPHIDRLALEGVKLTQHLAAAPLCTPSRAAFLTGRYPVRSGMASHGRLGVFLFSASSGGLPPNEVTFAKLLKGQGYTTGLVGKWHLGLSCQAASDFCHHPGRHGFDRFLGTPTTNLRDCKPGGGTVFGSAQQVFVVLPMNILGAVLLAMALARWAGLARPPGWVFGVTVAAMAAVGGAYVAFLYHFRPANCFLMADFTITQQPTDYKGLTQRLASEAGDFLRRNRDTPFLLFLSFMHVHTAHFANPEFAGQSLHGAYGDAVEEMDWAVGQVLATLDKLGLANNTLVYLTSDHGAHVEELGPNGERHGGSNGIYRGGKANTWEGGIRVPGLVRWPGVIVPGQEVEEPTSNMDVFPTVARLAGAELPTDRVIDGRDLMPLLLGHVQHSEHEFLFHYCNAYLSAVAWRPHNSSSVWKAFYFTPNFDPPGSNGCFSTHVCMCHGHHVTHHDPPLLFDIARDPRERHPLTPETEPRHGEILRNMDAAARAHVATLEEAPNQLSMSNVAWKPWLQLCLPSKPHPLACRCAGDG
Excerpt: (2) Measurement of an In vivo Inhibitory Effect on Steroid Sulfatase
A test compound was suspended in a 0.5% polyoxyethylene (20) sorbitan monooleate solution (Tween 80) and administered, once a day, to a group of 5 female SD strain rats (weighing 168-194 g) for 5 days.
Four hours after the final administration, all rats were sacrificed by ether anesthesia and dissected. Thus, the liver and the uterus were excised from each rat, washed once with cold phosphate-buffered saline (PBS, pH 7.4), and preserved at −70° C. or below. Each of the liver and the uterus was finely minced with scissors, and suspended in PBS containing 250 mM sucrose (5 ml/g tissue). Under cooling with ice, each suspension was homogenized with an Ultra-Turrax homogenizer. The resulting homogenate was centrifuged (at 4° C.) at 2,000×g for 30 minutes to remove nuclei and cell debris, and the protein concentration in this supernatant was measured according to the method of Bradford [Anal. Biochem. 72, 248-254(1976)].
The homogenate in an amount corresponding to a protein concentration of 100-500 μg/ml was mixed with [6,7-^3H]estrone 3-sulfate (with a specific activity of 49 Ci/mmol; from New England Nuclear, Boston, Mass., USA) in an amount corresponding to a substrate concentration of 20 μM. This mixture was diluted with PBS to a total volume of 1 ml, and incubated at 37° C. for 30 minutes. After incubation (1 ml), the steroid sulfatase activity was determined in the same manner as described above for the in vitro measurement (1).

steroid sulfatase [4] = target: T1, steroid sulfatase; experiment: In vitro inhibitory effect on steroid sulfatase (intact MCF-7 cells, [3H]estrone 3-sulfate hydrolysis); assay type: cell-based; design: Six-well plates (9.4 cm^2/well) were inoculated with intact MCF-7 human breast cancer cells; endogenous in cells; host or cells: MCF-7 human breast cancer cells; conditions: MCF7; 3 × 10^−9 M test compound; intact MCF-7 human breast cancer cells; 37° C., 20 hours; read-out: Inhibitory rate (3 × 10^−9 M. %)
Protocol: (1) Measurement of an In vitro Inhibitory Effect on Steroid Sulfatase
Six-well plates (9.4 cm^2/well) were inoculated with intact MCF-7 human breast cancer cells at a density of about 1×10^5 cells/well. Using Dulbecco's modified Eagle medium (DMEM) containing 10 mM HEPES, 5% fetal bovine serum, 0.011% sodium pyruvate and 0.37% sodium bicarbonate, the cells were grown to 80% confluency.
The plates were washed with Earle's balanced salt solution (EBSS from Life Technologies Inc., Grand Island, N.Y., USA). Then, serum-free DMEM (2 ml) containing 4 pmol (4.4×10^5 dpm) of [6,7-^3H]estrone 3-sulfate (with a specific activity of 49 Ci/mmol; from New England Nuclear, Boston, Mass., USA), together with a test compound, was placed on each plate and incubated at 37° C. for 20 hours. After incubation, the plate was cooled, and the medium (1 ml) was pipetted into a separating tube containing [4-^14C]estrone (6×10^3 dpm) (with a specific activity of 52.5 mCi/mmol; from New England Nuclear, Boston, Mass., USA). This mixture, together with toluene (4 ml), was vigorously shaken for 30 seconds. It was shown by experiment that more than 90% of [4-^14C]estrone was removed from the aqueous layer by this treatment. A portion (2 ml) of the organic phase was taken, and the ^3H and ^14C contents thereof were measured by scintillation spectrometry. Then, the amount of estrone 3-sulfate hydrolyzed was calculated from the total 3H count (corrected for the volumes of the medium used and the organic phase, and for the recovery of the [^14C]estrone added) and the specific activity of the substrate.

[5] = liver, read-out: Inhibitory rate (0.5 mg/kg, p.o., %) Liver
[6] = uterus, read-out: Inhibitory rate (0.5 mg/kg, p.o., %) Uterus

SMILES | inhibitory effect on steroid sulfatase (steroid sulfatase [1]) | estrogenic action [2] | inhibition at 0.5 mg/kg (steroid sulfatase [3]; [5]) [%] | inhibition at 0.5 mg/kg (steroid sulfatase [3]; [6]) [%] | inhibition at 0.003 µM (steroid sulfatase [4]) [%]
Cc1cc(=O)oc2cc(OS(N)(=O)=O)ccc12 [COUMATE, 4-methylcoumarin 7-sulfamate] | weak | do not show an estrogenic action | – | – | –
CCCCCCCCCCCCCC(=O)NCCc1ccc(OS(N)(=O)=O)cc1 [DU-14, 4-(2-myristoylaminoethyl)phenyl sulfamate] | weak | do not show an estrogenic action | – | – | –
C[C@]12CC[C@@H]3c4ccc(OS(N)(=O)=O)cc4CC[C@H]3[C@@H]1CCC2=O [EMATE, estrone 3-sulfamate] | powerful inhibitory effect | powerful estrogenic action | – | – | –
NS(=O)(=O)Oc1ccc(-c2ccccc2[N+](=O)[O-])cc1 [Example 1, 2′-nitrobiphenyl-4-yl sulfamate] | – | – | 91.2 | 94.9 | –
N#Cc1ccccc1-c1ccc(OS(N)(=O)=O)cc1 [Example 3, 2′-cyanobiphenyl-4-yl sulfamate] | – | – | 95.4 | 93.8 | 76
NS(=O)(=O)Oc1ccc(-c2ccc([N+](=O)[O-])cc2)cc1 [Example 16, 4′-nitrobiphenyl-4-yl sulfamate] | – | – | 97 | 100 | –
NS(=O)(=O)Oc1ccc(-c2ccc(OS(N)(=O)=O)cc2)cc1 [Example 21, biphenyl-4,4′-diyl disulfamate] | – | – | 97.2 | 97.6 | –
NS(=O)(=O)Oc1ccc(-c2ccc([N+](=O)[O-])cc2[N+](=O)[O-])cc1 [Example 23, 2′,4′-dinitrobiphenyl-4-yl sulfamate] | – | – | – | – | 67
N#Cc1cc([N+](=O)[O-])ccc1-c1ccc(OS(N)(=O)=O)cc1 [Example 25, 2′-cyano-4′-nitrobiphenyl-4-yl sulfamate] | – | – | 99.5 | 100 | 87
N#Cc1ccc(-c2ccc(OS(N)(=O)=O)cc2)c(C#N)c1 [Example 27, 2′,4′-dicyanobiphenyl-4-yl sulfamate] | – | – | – | – | 94
N#Cc1ccc(N(Cc2ccc(OS(N)(=O)=O)cc2)n2cnnc2)cc1 [Example 38, 4-[N-(4-cyano-phenyl)-N-(1,2,4-triazol-4-yl)aminomethyl]phenyl sulfamate] | – | – | 85.3 | 79 | –
